Where two headings read alike, the source gives them in different places.
Key:
[1] = format: in vivo, NIH/Swiss mice; conditions: 80 nmol/kg, AUC240
Protocol: (§1) In FIG. 3A, bars represent mean±sd, n=6-10. […] Gavage (1.5 g/kg) was given at t=0, Sample was taken at t=30 min. […] In FIG. 3B, points represent mean±sem, n=8-15.
Points represent mean±sem.

[2] = format: in vivo, NIH/Swiss mice
Protocol: as §1
Peptide was injected IP at t=−5 minutes into 4-hour fasted NIH/Swiss female mice. […] In FIG. 17 points represent mean+/−sem. […] Samples were taken at t=60, t=120 and t=180.

Row | SMILES | Basal Glucose Lowering at Peptide Conc. of 80 nmol/kg [1] | OGTT/GL (%) ([2]; 30 nmol/kg) | other results
1 | CC[C@H](C)[C@H](NC(=O)[C@H](CO)NC(=O)[C@H](Cc1ccc(O)cc1)NC(=O)[C@H](CC(=O)O)NC(=O)[C@H](CO)NC(=O)[C@@H](NC(=O)[C@H](Cc1ccccc1)NC(=O)[C@@H](NC(=O)CNC(=O)[C@H](CCC(=O)O)NC(=O)[C@@H](C)NC(=O)[C@@H](N)Cc1ccc(O)cc1)[C@@H](C)O)[C@@H](C)CC)C(=O)N[C@@H](C)C(=O)N[C@@H](CCSC)C(=O)N[C@@H](CC(=O)O)C(=O)N[C@@H](CCCCN)C(=O)N[C@H](C(=O)N[C@@H](Cc1c[nH]cn1)C(=O)N[C@@H](CCC(N)=O)C(=O)N[C@@H](CCC(N)=O)C(=O)N[C@@H](CC(=O)O)C(=O)N[C@@H](Cc1ccccc1)C(=O)N[C@H](C(=O)N[C@@H](CCC(N)=O)C(=O)N[C@@H](Cc1c[nH]c2ccccc12)C(=O)N[C@@H](CC(C)C)C(=O)N[C@@H](CC(C)C)C(=O)N[C@@H](C)C(=O)N[C@@H](CCC(N)=O)C(=O)N[C@@H](CCCCN)C(=O)N1CCC[C@H]1C(=O)N[C@@H](CO)C(=O)N[C@@H](CO)C(=O)NCC(=O)N[C@@H](C)C(=O)N1CCC[C@H]1C(=O)N1CCC[C@H]1C(=O)N1CCC[C@H]1C(=O)N[C@@H](CO)C(N)=O)C(C)C)[C@@H](C)CC [Compound 0601GIP4846] | −6%, | −25, % | 
2 | CC[C@H](C)[C@H](NC(=O)[C@H](CO)NC(=O)[C@H](Cc1ccc(O)cc1)NC(=O)[C@H](CC(=O)O)NC(=O)[C@H](CO)NC(=O)[C@@H](NC(=O)[C@H](Cc1ccccc1)NC(=O)[C@@H](NC(=O)CNC(=O)[C@H](CCC(=O)O)NC(=O)[C@@H](C)NC(=O)[C@@H](N)Cc1ccc(O)cc1)[C@@H](C)O)[C@@H](C)CC)C(=O)N[C@@H](C)C(=O)N[C@@H](CCSC)C(=O)N[C@@H](CC(=O)O)C(=O)N[C@@H](CCCCN)C(=O)N[C@H](C(=O)N[C@@H](Cc1c[nH]cn1)C(=O)N[C@@H](CCC(N)=O)C(=O)N[C@@H](CCC(N)=O)C(=O)N[C@@H](CC(=O)O)C(=O)N[C@@H](Cc1ccccc1)C(=O)N[C@H](C(=O)N[C@@H](CC(N)=O)C(=O)N[C@@H](Cc1c[nH]c2ccccc12)C(=O)N[C@@H](CC(C)C)C(=O)N[C@@H](CC(C)C)C(=O)N[C@@H](C)C(=O)N[C@@H](CCC(N)=O)C(=O)N[C@@H](CCCCN)C(=O)N[C@H](C(=O)N[C@@H](CO)C(=O)N1CCC[C@H]1C(=O)N1CCC[C@H]1C(=O)N1CCC[C@H]1C(N)=O)[C@@H](C)O)C(C)C)[C@@H](C)CC [0601GIP4345] | −11%, AUC240 | −14 @ 30 nmol/kg % | OGTT/GL (%) ([2]; 250 nmol/kg): −25 @ 250 nmol/kg, %
3 | CC[C@H](C)[C@H](NC(=O)[C@H](CO)NC(=O)[C@H](Cc1ccc(O)cc1)NC(=O)[C@H](CC(=O)O)NC(=O)[C@H](CO)NC(=O)[C@@H](NC(=O)[C@H](Cc1ccccc1)NC(=O)[C@@H](NC(=O)CNC(=O)[C@H](CCC(=O)O)NC(=O)[C@@H](C)NC(=O)[C@@H](N)Cc1ccc(O)cc1)[C@@H](C)O)[C@@H](C)CC)C(=O)N[C@@H](C)C(=O)N[C@@H](CCSC)C(=O)N[C@@H](CC(=O)O)C(=O)N[C@@H](CCCCN)C(=O)N[C@H](C(=O)N[C@@H](Cc1c[nH]cn1)C(=O)N[C@@H](CCC(N)=O)C(=O)N[C@@H](CCC(N)=O)C(=O)N[C@@H](CC(=O)O)C(=O)N[C@@H](Cc1ccccc1)C(=O)N[C@H](C(=O)N[C@@H](CC(N)=O)C(=O)N[C@@H](Cc1c[nH]c2ccccc12)C(=O)N[C@@H](CC(C)C)C(=O)N[C@@H](CC(C)C)C(=O)N[C@@H](C)C(=O)N[C@@H](CCC(N)=O)C(=O)N[C@@H](CCCCN)C(=O)N1CCC[C@H]1C(=O)N[C@@H](CCCCN)C(=O)N[C@@H](CCCCN)C(=O)N[C@H](C(=O)N[C@@H](CCCNC(=N)N)C(=O)N[C@@H](C)C(=O)N[C@@H](CO)C(N)=O)[C@@H](C)CC)C(C)C)[C@@H](C)CC [Compound 0601GIP4818] |  | −23, % | Basal Gluc. Low. 80 nmol/Kg [1]: −9%,
4 | CC[C@H](C)[C@H](NC(=O)[C@H](CO)NC(=O)[C@H](Cc1ccc(O)cc1)NC(=O)[C@H](CC(=O)O)NC(=O)[C@H](CO)NC(=O)[C@@H](NC(=O)[C@H](Cc1ccccc1)NC(=O)[C@@H](NC(=O)CNC(=O)[C@H](CCC(=O)O)NC(=O)[C@@H](C)NC(=O)[C@@H](N)Cc1ccc(O)cc1)[C@@H](C)O)[C@@H](C)CC)C(=O)N[C@@H](C)C(=O)N[C@@H](CCSC)C(=O)N[C@@H](CC(=O)O)C(=O)N[C@@H](CCCCN)C(=O)N[C@H](C(=O)N[C@@H](Cc1c[nH]cn1)C(=O)N[C@@H](CCC(N)=O)C(=O)N[C@@H](CCC(N)=O)C(=O)N[C@@H](CC(=O)O)C(=O)N[C@@H](Cc1ccccc1)C(=O)N[C@H](C(=O)N[C@@H](CC(N)=O)C(=O)N[C@@H](Cc1c[nH]c2ccccc12)C(=O)N[C@@H](CC(C)C)C(=O)N[C@@H](CC(C)C)C(=O)N[C@@H](C)C(=O)N[C@@H](CCC(N)=O)C(=O)N[C@@H](CCCCN)C(=O)N[C@H](C(=O)N[C@@H](CO)C(=O)N1CCC[C@H]1C(=O)N[C@@H](CCCNC(=N)N)C(=O)N1CCC[C@H]1C(=O)N1CCC[C@H]1C(=O)N[C@@H](CO)C(N)=O)[C@@H](C)O)C(C)C)[C@@H](C)CC [Compound 0601GIP4236] |  |  | OGTT/GL (%) ([2]; 350 nmol/kg): −16%
5 | CC[C@H](C)[C@H](NC(=O)[C@H](CO)NC(=O)[C@H](Cc1ccc(O)cc1)NC(=O)[C@H](CC(=O)O)NC(=O)[C@H](CO)NC(=O)[C@@H](NC(=O)[C@H](Cc1ccccc1)NC(=O)[C@@H](NC(=O)CNC(=O)[C@H](CCC(=O)O)NC(=O)[C@H](C)NC(=O)[C@@H](N)Cc1ccc(O)cc1)[C@@H](C)O)[C@@H](C)CC)C(=O)N[C@@H](C)C(=O)N[C@@H](CCSC)C(=O)N[C@@H](CC(=O)O)C(=O)N[C@@H](CCCCN)C(=O)N[C@H](C(=O)N[C@@H](Cc1c[nH]cn1)C(=O)N[C@@H](CCC(N)=O)C(=O)N[C@@H](CCC(N)=O)C(=O)N[C@@H](CC(=O)O)C(=O)N[C@@H](Cc1ccccc1)C(=O)N[C@H](C(=O)N[C@@H](CC(N)=O)C(=O)N[C@@H](Cc1c[nH]c2ccccc12)C(=O)N[C@@H](CC(C)C)C(=O)N[C@@H](CC(C)C)C(=O)N[C@@H](C)C(=O)N[C@@H](CCC(N)=O)C(=O)N[C@@H](CCCCN)C(=O)N[C@H](C(=O)N[C@@H](CO)C(=O)N1CCC[C@H]1C(=O)N[C@@H](CCCNC(=N)N)C(=O)N1CCC[C@H]1C(=O)N1CCC[C@H]1C(=O)N[C@@H](CO)C(=O)N[C@@H](CO)C(N)=O)[C@@H](C)O)C(C)C)[C@@H](C)CC [0601GIP4401] |  | 1, 30% | 
6 | CC[C@H](C)[C@H](NC(=O)[C@H](CO)NC(=O)[C@H](Cc1ccc(O)cc1)NC(=O)[C@H](CC(=O)O)NC(=O)[C@H](CO)NC(=O)[C@@H](NC(=O)[C@H](Cc1ccccc1)NC(=O)[C@@H](NC(=O)CNC(=O)[C@H](CCC(=O)O)NC(=O)CCNC(=O)[C@@H](N)Cc1ccc(O)cc1)[C@@H](C)O)[C@@H](C)CC)C(=O)N[C@@H](C)C(=O)N[C@@H](CCSC)C(=O)N[C@@H](CC(=O)O)C(=O)N[C@@H](CCCCN)C(=O)N[C@H](C(=O)N[C@@H](Cc1c[nH]cn1)C(=O)N[C@@H](CCC(N)=O)C(=O)N[C@@H](CCC(N)=O)C(=O)N[C@@H](CC(=O)O)C(=O)N[C@@H](Cc1ccccc1)C(=O)N[C@H](C(=O)N[C@@H](CC(N)=O)C(=O)N[C@@H](Cc1c[nH]c2ccccc12)C(=O)N[C@@H](CC(C)C)C(=O)N[C@@H](CC(C)C)C(=O)N[C@@H](C)C(=O)N[C@@H](CCC(N)=O)C(=O)N[C@@H](CCCCN)C(=O)N1CCC[C@H]1C(=O)N[C@@H](CO)C(=O)N[C@@H](CO)C(=O)NCC(=O)N[C@@H](C)C(=O)N1CCC[C@H]1C(=O)N1CCC[C@H]1C(=O)N1CCC[C@H]1C(=O)N[C@@H](CO)C(N)=O)C(C)C)[C@@H](C)CC [0601GIP4458] |  | −14, 30% | 
